From patent US20210253557A1, “SUBSTITUTED TRIAZOLE DERIVATIVES AND USES THEREOF” (Bayer Pharma Aktiengesellschaft, priority 2017, published 2021) come the findings set out here.

One assay concerns the target T1, human V1a receptor (Homo sapiens, UniProt P37288).
T1 construct: expressed in transfected cells; host or cells: CHO K1 (ATCC), also stably transfected with a modified aequorin
The assay can be described thus: Cellular in vitro assay for determining vasopressin receptor activity (V1a, aequorin luminescence). Type of assay: cell-based. The following applies: for IC50: CHO cell line transfected with the human V1a receptor, [Arg8]-vasopressin at EC50 concentration, read-out: IC50 hV1a; for ratio IC50 hV2/hV1a: selectivity ratio of IC50 hV2 to IC50 hV1a.

In the next assay the target is T2, human V2 receptor (Homo sapiens, UniProt P30518).
T2 construct: expressed in transfected cells; host or cells: CHO K1 (ATCC) expressing firefly luciferase under a CRE-responsive promoter
T2 sequence (P30518 whole entry): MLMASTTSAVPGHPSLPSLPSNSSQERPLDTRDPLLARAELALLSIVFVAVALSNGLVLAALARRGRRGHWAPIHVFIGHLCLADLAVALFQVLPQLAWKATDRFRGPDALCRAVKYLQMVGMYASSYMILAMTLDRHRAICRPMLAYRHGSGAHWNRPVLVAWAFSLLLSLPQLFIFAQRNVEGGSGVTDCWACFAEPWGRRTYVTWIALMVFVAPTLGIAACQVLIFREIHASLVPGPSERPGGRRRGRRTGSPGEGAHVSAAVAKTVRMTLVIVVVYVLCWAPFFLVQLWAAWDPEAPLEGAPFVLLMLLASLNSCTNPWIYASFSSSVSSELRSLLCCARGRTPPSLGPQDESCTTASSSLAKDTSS
The assay can be described thus: Cellular in vitro assay for determining vasopressin receptor activity (V2, CRE-luciferase). It counts as cell-based. The following applies: CHO cell line transfected with the human V2 receptor; [Arg8]-vasopressin at EC50 concentration; read-out: IC50 hV2. An outline of the steps:
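Antagonism was measured as inhibition of a 3-h, EC50-level [Arg8]-vasopressin stimulation, with compounds tested at several concentrations, yielding IC50 values. The read-out was cAMP-driven CRE-luciferase luminescence after lysis, in recombinant CHO K1 cells carrying human V2 receptor. Cells were seeded in 2% FCS DMEM/F12 one day earlier.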

Structures can show the parent of a compound that is named as a salt.

T1 sequence (P37288 whole entry): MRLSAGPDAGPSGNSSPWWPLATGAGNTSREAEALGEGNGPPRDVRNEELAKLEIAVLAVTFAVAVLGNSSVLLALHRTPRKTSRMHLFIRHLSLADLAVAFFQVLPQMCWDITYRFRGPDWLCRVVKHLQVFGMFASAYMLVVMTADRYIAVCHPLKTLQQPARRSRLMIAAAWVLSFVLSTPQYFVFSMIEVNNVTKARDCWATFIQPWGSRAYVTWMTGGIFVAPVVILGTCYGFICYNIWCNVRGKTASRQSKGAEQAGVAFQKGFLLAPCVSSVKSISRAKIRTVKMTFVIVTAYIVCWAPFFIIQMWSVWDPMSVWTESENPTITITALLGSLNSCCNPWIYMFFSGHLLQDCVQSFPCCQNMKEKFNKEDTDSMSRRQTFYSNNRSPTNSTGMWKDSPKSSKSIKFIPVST

By IC50 is commonly meant the concentration at which inhibition is half-maximal. With `Cc1ccccc1-n1nc(Cn2nc(-c3ccc(Cl)cc3)n(C[C@H](O)C(F)(F)F)c2=O)nc1C(C)N` (mixture of isomers) [Example 59, 2-({5-[1-Aminoethyl]-1-(2-methylphenyl)-1H-1,2,4-triazol-3-yl}methyl)-5-(4-chlorophenyl)-4-[(2S)-3,3,3-trifluoro-2-hydroxypropyl]-2,4-dihydro-3H-1,2,4-triazol-3-one trifluoroacetate], on human V1a receptor, the IC50 came to 1.19 nM and the “ratio IC50 hV2/hV1a” value is given as 2.3. Moreover, at human V2 receptor, the concentration for half-maximal inhibition (IC50) stood at 2.74 nM.

`CC(C)(C)OCC(NS(C)(=O)=O)c1nc(Cn2nc(-c3ccc(Cl)cc3)n(C[C@H](O)C(F)(F)F)c2=O)nn1-c1ccccc1Cl` (mixture of isomers) [Example 82, N-{2-tert-Butoxy-1-[1-(2-chlorophenyl)-3-({3-(4-chlorophenyl)-5-oxo-4-[(2S)-3,3,3-trifluoro-2-hydroxypropyl]-4,5-dihydro-1H-1,2,4-triazol-1-yl}methyl)-1H-1,2,4-triazol-5-yl]ethyl}methanesulfonamide]: the half-maximal inhibitory concentration (IC50) on human V1a receptor turned out to be 0.64 nM; on human V2 receptor, 48 nM. Besides, on human V1a receptor, the “ratio IC50 hV2/hV1a” value amounted to 75.6.

With `CN1C(=O)CCC1c1nc(Cn2nc(-c3ccc(Cl)cc3)n(C[C@H](O)C(F)(F)F)c2=O)nn1CCC(F)(F)F` (mixture of isomers) [Example 130, 5-(4-Chlorophenyl)-2-({5-[1-methyl-5-oxopyrrolidin-2-yl]-1-(3,3,3-trifluoropropyl)-1H-1,2,4-triazol-3-yl}methyl)-4-[(2S)-3,3,3-trifluoro-2-hydroxypropyl]-2,4-dihydro-3H-1,2,4-triazol-3-one], at human V1a receptor, the IC50 came to 21 nM and the “ratio IC50 hV2/hV1a” value is recorded as 127.9. For the same compound, the half-inhibitory concentration (IC50) on human V2 receptor turned out to be 2680 nM.

Turning to `CC(NC(=O)C(F)(F)F)c1nc(Cn2nc(-c3ccc(Cl)cc3)n(C[C@H](O)C(F)(F)F)c2=O)nn1-c1ccccc1Cl` (single isomer, unassigned) [Example 75], the values for the IC50 at human V1a receptor and at human V2 receptor were 4.2 nM and 59 nM, respectively. Further, the “ratio IC50 hV2/hV1a” value on human V1a receptor was 14.1.

Consider `CC(=O)NC(CO)c1nc(Cn2nc(-c3ccc(Cl)cc3)n(C[C@H](O)C(F)(F)F)c2=O)nn1-c1ccccc1Cl` (single isomer, unassigned) [Example 92], for which, at human V1a receptor, the 50% inhibitory concentration (IC50) turned out to be 5.1 nM and the “ratio IC50 hV2/hV1a” value is given as 3.4. Moreover, the half-maximal inhibitory concentration (IC50) on human V2 receptor was 17.5 nM.

Consider `C[C@H](OC(N)=O)c1nc(Cn2nc(-c3ccc(Cl)cc3)n(C[C@H](O)C(F)(F)F)c2=O)nn1-c1cccc(Cl)c1` [Example 35, (1S)-1-[1-(3-Chlorophenyl)-3-({3-(4-chlorophenyl)-5-oxo-4-[(2S)-3,3,3-trifluoro-2-hydroxypropyl]-4,5-dihydro-1H-1,2,4-triazol-1-yl}methyl)-1H-1,2,4-triazol-5-yl]ethyl Carbamate], for which the IC50 at human V1a receptor came out at 41.4 nM; on human V2 receptor it was 1.99 nM.

For the compound `CN(C)C1(c2nc(Cn3nc(-c4ccc(Cl)cc4)n(C[C@H](O)C(F)(F)F)c3=O)nn2-c2ccccc2Cl)CC1` [Example 79, 5-(4-Chlorophenyl)-2-({1-(2-chlorophenyl)-5-[1-(dimethylamino)cyclopropyl]-1H-1,2,4-triazol-3-yl}methyl)-4-[(2S)-3,3,3-trifluoro-2-hydroxypropyl]-2,4-dihydro-3H-1,2,4-triazol-3-one], on human V1a receptor, the 50% inhibitory concentration (IC50) came to 1 nM and the “ratio IC50 hV2/hV1a” value was 14.5. For the same compound, the IC50 at human V2 receptor is 14.5 nM.

With `COCCNC(=O)OCc1nc(Cn2nc(-c3ccc(Cl)cc3)n(C[C@H](O)C(F)(F)F)c2=O)nn1-c1cccc(F)c1` [Example 44, [3-({3-(4-Chlorophenyl)-5-oxo-4-[(2S)-3,3,3-trifluoro-2-hydroxypropyl]-4,5-dihydro-1H-1,2,4-triazol-1-yl}methyl)-1-(3-fluorophenyl)-1H-1,2,4-triazol-5-yl]methyl (2-methoxyethyl)carbamate], on human V1a receptor, the IC50 worked out at 27.6 nM and the “ratio IC50 hV2/hV1a” value was 0.3. Further, on human V2 receptor, the half-maximal inhibitory concentration (IC50) turned out to be 7.98 nM.

As for `O=C1NC(c2nc(Cn3nc(-c4ccc(Cl)cc4)n(C[C@H](O)C(F)(F)F)c3=O)nn2-c2ccccc2Cl)CO1` (single isomer, unassigned) [Example 99], at human V1a receptor, the IC50 amounted to 3.3 nM and the “ratio IC50 hV2/hV1a” value was determined as 6.4. The IC50 at human V2 receptor amounted to 21 nM.

In the case of `O=C1CC[C@H](c2nc(Cn3nc(-c4ccc(Cl)cc4)n(C[C@H](O)C(F)(F)F)c3=O)nn2-c2ccccc2Cl)N1` [Example 101, 5-(4-Chlorophenyl)-2-({1-(2-chlorophenyl)-5-[(2R)-5-oxopyrrolidin-2-yl]-1H-1,2,4-triazol-3-yl}methyl)-4-[(2S)-3,3,3-trifluoro-2-hydroxypropyl]-2,4-dihydro-3H-1,2,4-triazol-3-one], at human V1a receptor, the half-inhibitory concentration (IC50) stood at 0.77 nM and the “ratio IC50 hV2/hV1a” value stood at 4.9. The half-maximal inhibitory concentration (IC50) at human V2 receptor was 3.8 nM.

Turning to `CC(=O)NC(C)c1nc(Cn2nc(-c3ccc(Cl)cc3)n(C[C@H](O)C(F)(F)F)c2=O)nn1-c1ncccc1Cl` (mixture of isomers) [Example 107, N-{1-[3-({3-(4-Chlorophenyl)-5-oxo-4-[(2S)-3,3,3-trifluoro-2-hydroxypropyl]-4,5-dihydro-1H-1,2,4-triazol-1-yl}methyl)-1-(3-chloropyridin-2-yl)-1H-1,2,4-triazol-5-yl]ethyl}acetamide], on human V1a receptor, the IC50 came out at 13.5 nM and the “ratio IC50 hV2/hV1a” value is 17.8. Also, the concentration for half-maximal inhibition (IC50) on human V2 receptor worked out at 240 nM.

Consider `C[C@@H](OC(N)=O)c1nc(Cn2nc(-c3ccc(Cl)cc3)n(C[C@H](O)C(F)(F)F)c2=O)nn1-c1c(F)cccc1Cl` [Example 3, (1R)-1-[1-(2-Chloro-6-fluorophenyl)-3-({3-(4-chlorophenyl)-5-oxo-4-[(2S)-3,3,3-trifluoro-2-hydroxypropyl]-4,5-dihydro-1H-1,2,4-triazol-1-yl}methyl)-1H-1,2,4-triazol-5-yl]ethyl Carbamate], for which, on human V1a receptor, the IC50 was found to be 1.35 nM and the “ratio IC50 hV2/hV1a” value amounted to 5.1. The IC50 at human V2 receptor stood at 6.85 nM.
